# Tested on: Bone marrow derived dendritic cells (BMDCs)
# Assay: In vitro screening of oleamide and analogues: cytokine secretion by LPS-stimulated BMDCs
# Format: cell-based, Balb/c mice
# Details: Table 3; BMDCs, 25 uM compound 1 hour prior to 100 ng/ml LPS, supernatants after 24 hours
# Protocol: FIG. 2: In vitro results: Bone marrow dendritic cells (BMDCs) were cultured in vitro and plated at 1×10^6 cells per ml. The BMDCs were conditioned with 25 uM oleamide 1 hour prior to stimulation with 100 ng/ml LPS (E. coli serotype R515). After 24 hours, the supernatants were removed and analysed for cytokine levels of IL-12p40, IL-12p70, IL-23 and TNF-alpha using specific immunoassays. (n=9)
# FIGS. 4(A) to 4(G): In vitro Results: Bone marrow dendritic cells (BMDCs) were cultured in vitro and plated at 1×10^6 cells/ml. The BMDCs were conditioned with oleamide or its family of analogues at a concentration of 25 uM 1 hour prior to stimulation with 100 ng/ml LPS (E. coli serotype R515). After 24 hours, the supernatants were removed and analysed for levels of IL-12p40, IL-12p70, IL-23 and TNF-alpha using specific immunoassays. (n=9)
# (§1) FIG. 6: Bone marrow-derived dendritic cells (BMDCs) were cultured in vitro and plated at 1×10^6 cells/ml. The BMDCs were conditioned with analogues of oleamide (compounds 19.2, 20.1, 36.2, 37.1 or 39.1) at a concentration of 25 μM 1 hour prior to stimulation with 100 ng/ml LPS (E. coli serotype R515). After 24 hours, the supernatants were removed and analysed for levels of IL-12p40, IL-12p70, IL-23 and TNF-alpha using specific immunoassays. (n=9)
# as §1, with “7:” for “6:”, “18.2, 21.2, 22.2, 23.2, 33.1” for “19.2, 20.1, 36.2, 37.1”, “34.1 in panel A and 35.1, 38.1, 50.2 in panel B)” for “39.1)”
# The concentration of cytokines in cell supernatants was determined using ELISA Duoset kits from R&D Systems in accordance with the manufacturers' instructions. Briefly, 100 μl/well of capture antibody (diluted to the appropriate concentration in PBS) was added to an ELISA plate (Nunc) and incubated overnight at room temperature. Plates were then washed three times with Wash Buffer (PBS+0.05% Tween-20) and blocked by adding 300 μl of Blocking buffer (1% (w/v) BSA/PBS) for a minimum of 1 h at room temperature. The washing step was repeated and 100 μl of samples and standards (diluted to appropriate concentrations) were added per well, in triplicate. Plates were then incubated at 2-4° C. overnight. The next day, plates were washed again and 100 μl of the biotinylated detection antibody was added to each well and incubated for 2 hours at room temperature. 100 μl of Streptavidin-horseradish-peroxidase (R&D Systems) was then added to each well, following another wash step. Plates were incubated for 20 min at room temperature. After the last washing step, 100 μl of tetramethylbenzidine (BD Biosciences) was added to each well and plates were left in the dark for 20 minutes or until a blue colour developed. Colour development was stopped by adding 50 μl of 1M sulphuric acid (Sigma-Aldrich) to the wells. The optical density was determined at 450 nm, using a VersaMax™ microplate reader (Molecular Devices). For each set of samples, a standard curve was generated and the values of unknown samples were calculated from the standard curve.
# Bone marrow derived dendritic cells (BMDCs) were cultured as follows:
# (Day 1) Bone marrow cells were harvested from the femur and tibia of Balb/c female mice by flushing the bone with RPMI 1640 complete media [supplemented with 10% foetal calf serum and 2% Penicilin-Steptomycin (Life Technologies, Ireland)] using a 27 gauge needle attached to a 10 ml syringe. The bone marrow cells were collected into a 50-ml Falcon tube and centrifuged at 1200 RPM for 5 minutes. […]
SMILES,+LPS IL-12p40,+LPS IL-12p70,+LPS IL-23,+LPS TNF-α
"CCCCCCCC/C=C\CCCCCCCC(=O)Nc1ccncc1 [Compound 39-1, N-(pyridin-4-yl) oleamide]",↓,↓,→,→
"NC(=O)COCCCOCc1ccccc1 [Compound 51-2, 2-(3-(benzyloxy)propoxy) acetamide]",↓,↓,↓,→
"CCCCCCCC/C=C\CCCCCCCC(=O)NCc1cccc(OC)c1 [Compound 22-2, N-(3-methoxybenzyl) oleamide]",↑,↑,↓,→
"CCCCCCCC/C=C\CCCCCCCC(=O)Nc1ccccn1 [Compound 37-1, N-(pyridin-2-yl) oleamide]",→,→,↓,↓
"CCCCCCCC/C=C\CCCCCCCC(=O)NCc1ccccc1OC [Compound 23-2, N-(2-methoxybenzyl) oleamide]",↑,→,↓,→
"CCCCCCCC/C=C\CCCCCCCC(=O)Nc1ccc2ccccc2n1 [Compound 36-2, N-(quinolin-2-yl) oleamide]",↓,↓,↓,↓
"CCCCCCCC/C=C\CCCCCCCC(=O)NCc1cccc(C(F)(F)F)c1 [Compound 34-1, N-(3-(trifluoromethyl)benzyl)oleamide]",↑,→,↓,→
"CCCCCCCC/C=C\CCCCCCCC(=O)NCc1ccccc1C(F)(F)F [Compound 35-1, N-(2-(trifluoromethyl)benzyl)oleamide]",→,→,↓,→
"CCCCCCCC/C=C\CCCCCCCC(N)=O [Ole, 9(Z)-Octadecenamide]",↓,↓,↓,→
"CCCCCCCC/C=C\CCCCCCCC(=O)Nc1ccc(N(C)C)cc1 [Compound 19-2, N-(4-(dimethylamino)phenyl)oleamide]",→,→,→,→
"NC(=O)COCCCCOc1ccccc1 [Compound 50-2, 2-(4-phenoxybutoxy) acetamide]",→,→,↓,→
"CCCCCCCC/C=C\CCCCCCCC(=O)Nc1ccc(N(CC)CC)cc1 [Compound 20-1, N-(4-(diethylamino)phenyl)oleamide]",→,↓,→,→
"CCCCCCCC/C=C\CCCCCCCC(=O)NCc1ccccc1 [Compound 18-2, N-benzyloleamide]",↑,↑,→,→
"CCCCCCCC/C=C\CCCCCCCC(=O)NCc1ccc(C(F)(F)F)cc1 [Compound 33-1, N-(4-(trifluoromethyl)benzyl)oleamide]",↑,↑,→,→
"CCCCCCCC/C=C\CCCCCCCC(=O)Nc1cccnc1 [Compound 38-1, N-(pyridin-3-yl) oleamide]",↓,→,↓,→
"CCCCCCCC/C=C\CCCCCCCC(=O)NCc1ccc(OC)cc1 [Compound 21-2, N-(4-methoxybenzyl) oleamide]",↑,↑,↓,→

# Same assay, conditions: summary statement on the cytokine tables
row,SMILES,immunomodulatory effect
1,CC/C=C\C/C=C\C/C=C\CCCCCCCC(N)=O [linolenamide],immunomodulatory effect
2,CCCCCC/C=C\CCCCCCCC(N)=O [palmitoleamide],immunomodulatory effect
3,CCCCC/C=C\C/C=C\CCCCCCCC(N)=O [linoleamide],immunomodulatory effect
4,CCCCCCCCCCCCCCCCCC(N)=O [stearamide],immunomodulatory effect
5,CCCCC/C=C\C/C=C\C/C=C\C/C=C\CCCC(N)=O [arachidonamide],immunomodulatory effect
6,"CCCCCCCC/C=C\CCCCCCCC(N)=O [Ole, 9(Z)-Octadecenamide]",immunomodulatory effect
7,CCCCCCCCCCCCCCCC(N)=O [palmitamide],immunomodulatory effect

# Tested on: BV2 murine microglial cells
# Assay: not given
# Details: lipopolysaccharide-stimulated neuronal microglia; cited from earlier work
SMILES,"activation of p38, ERK, PI3-kinase/Akt, ROS accumulation and NF-κB activation",pro-inflammatory mediators
"CCCCCCCC/C=C\CCCCCCCC(N)=O [Ole, 9(Z)-Octadecenamide]",blocks activation,suppressor of pro-inflammatory mediators

# Source: patent US20190380980A1, “A Method For Treating Peripheral Inflammatory Disease” (Dublin City University, priority 2015, published 2019)
